Values joined by “and” are separate entries in the source; they are usually repeats but may differ in a detail not shown here. Equal values may be shown once.
Tests used:
human CYP11B1 = molecular target: T1, human CYP11B1 (Homo sapiens, UniProt P15538); assay: Cortisol production inhibition in V79-B1 cells expressing human CYP11B1 (ELISA); format: cell-based; conditions: 11-deoxycortisol 100 nmol/L, 1 hour, cortisol by ELISA, mean or mean ± SD
T1 construct: expressed in transfected cells; host or cells: V79 cells (Chinese hamster lung-derived fibroblasts, from ECACC through DS Pharma Biomedical)
T1 sequence (P15538 25-503): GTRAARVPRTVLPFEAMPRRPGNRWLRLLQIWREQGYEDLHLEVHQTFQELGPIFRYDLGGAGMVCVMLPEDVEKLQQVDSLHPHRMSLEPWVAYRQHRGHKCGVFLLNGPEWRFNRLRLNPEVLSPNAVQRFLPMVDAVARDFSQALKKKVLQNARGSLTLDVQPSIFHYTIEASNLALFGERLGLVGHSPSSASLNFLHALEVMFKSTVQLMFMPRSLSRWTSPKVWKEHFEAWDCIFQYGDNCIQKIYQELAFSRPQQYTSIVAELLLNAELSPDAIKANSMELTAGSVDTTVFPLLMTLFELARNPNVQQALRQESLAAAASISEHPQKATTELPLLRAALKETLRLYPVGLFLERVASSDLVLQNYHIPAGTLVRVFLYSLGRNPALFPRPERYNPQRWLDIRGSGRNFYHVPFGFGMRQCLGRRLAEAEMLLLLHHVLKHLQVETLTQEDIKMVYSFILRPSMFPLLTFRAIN
Experimental: (§1) This inhibition experiment can be carried out by the following operations. Human CYP11B1 and human CYP11B2 are allowed to individually express in Chinese hamster lung-derived fibroblasts. Subsequently, 11-deoxycortisol is added to the cells expressing human CYP11B1 to a final concentration of 100 nmol/L, and corticosterone is added to the cells expressing human CYP11B2 to a final concentration of 100 nmol/L. At the same time, a target compound used as an analytical sample is added to each of the cells to a final concentration of 10^−4 to 10^4 nmol/L. Thereafter, the concentration of cortisol as a metabolite of CYP11B1 is measured in the cells expressing human CYP11B1 according to ELISA (Enzyme-Linked ImmunoSorbent Assay), and the concentration of aldosterone as a metabolite of CYP11B2 is measured in the cells expressing human CYP11B2 according to ELISA. Provided that the aldosterone concentration and the cortisol concentration without addition of any target compound as a sample are each set at 100%, an inhibition curve is produced, and then inhibitory activity (IC50) is calculated.
(§2) Chinese hamster lung-derived fibroblasts, V79 cells (acquired from ECACC (European Collection of Cell Cultures) through DS Pharma Biomedical), were allowed to express human CYP11B2, so as to produce V79-B2, and were also allowed to express human CYP11B1, so as to produce V79-B1. V79 cells were cultured in a DMEM medium (containing 4,500 mg/L D-glucose, L-glutamine, and 110 mg/L sodium pyruvate; manufactured by Life Technologies). V79-B2 or V79-B1 was inoculated on a microplate, and then cultured overnight. Thereafter, a mixed solution of corticosterone and a compound as a test target was added into a culture supernatant of V79-B2, and a mixed solution of 11-deoxycortisol and a compound as a test target was added into a culture supernatant of V79-B1. As a solvent for these mixed solutions, the aforementioned DMEM medium further containing 0.1 v/v % dimethyl sulfoxide was used. The concentration of corticosterone or 11-deoxycortisol was adjusted to be 100 nmol/L by addition of the solvent. As test target compounds, (R)-4-iodometomidate (IMTO), and Compounds 100, 200, 300, 400, 500, and 601 to 610 synthesized by methods shown in Examples 1, 3, 5, 6, 8, 10, 12, 14, 16, 18, 20, 22, 24, 26, and 28, respectively, were used. The aforementioned mixed solution was prepared such that the concentration of each compound was 10^−4 to 10^4 nmol/L in the mixed solution. One hour later, the culture supernatant of V79-B1 was recovered, and the concentration of cortisol as a metabolite of CYP11B1 was measured by ELISA (Enzyme-Linked ImmunoSorbent Assay). Moreover, four hours later, the culture supernatant of V79-B2 was recovered, and the concentration of aldosterone as a metabolite of CYP11B2 was measured by ELISA. Provided that the concentration of aldosterone or the concentration of cortisol obtained when none of IMTO and Compounds 100, 200, 300, 400 and 500 was added was defined as 100%, an inhibition curve was produced, and the inhibitory activity (IC50) of each compound was then calculated.
(§3) In Tables 5 and 6, the term “Selectivity factor” indicates a quotient of the mean value of IC50 for cortisol production inhibition divided by the mean value of IC50 for aldosterone production inhibition. In addition, the symbol “n” indicates the number of tests.

human CYP11B2 = molecular target: T2, human CYP11B2 (Homo sapiens, UniProt P19099); assay: Aldosterone production inhibition in V79-B2 cells expressing human CYP11B2 (ELISA); format: cell-based; conditions: for IC50: V79-B2 cells, corticosterone 100 nmol/L, 4 hours, aldosterone by ELISA, mean or mean ± SD; for Selectivity factor: mean IC50 cortisol production inhibition divided by mean IC50 aldosterone production inhibition
T2 construct: expressed in transfected cells; host or cells: V79 cells (Chinese hamster lung-derived fibroblasts, from ECACC through DS Pharma Biomedical)
T2 sequence (P19099 25-503): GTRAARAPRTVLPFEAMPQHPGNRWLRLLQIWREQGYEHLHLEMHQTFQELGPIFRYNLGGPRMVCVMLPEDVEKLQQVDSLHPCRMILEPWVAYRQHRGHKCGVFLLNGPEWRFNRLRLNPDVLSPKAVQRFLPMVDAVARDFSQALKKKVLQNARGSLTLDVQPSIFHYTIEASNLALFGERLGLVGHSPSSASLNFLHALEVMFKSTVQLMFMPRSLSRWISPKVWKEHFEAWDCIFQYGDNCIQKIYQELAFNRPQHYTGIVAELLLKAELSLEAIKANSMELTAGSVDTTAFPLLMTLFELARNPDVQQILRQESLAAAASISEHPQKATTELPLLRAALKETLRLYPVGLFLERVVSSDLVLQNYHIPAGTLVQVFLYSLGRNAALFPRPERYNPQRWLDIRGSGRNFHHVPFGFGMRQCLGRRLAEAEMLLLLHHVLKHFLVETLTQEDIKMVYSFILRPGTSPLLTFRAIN
Experimental: as §1, §2, §3

| Compound | IC50 (human CYP11B1) | IC50 (human CYP11B2) | Selectivity factor (human CYP11B2) |
| --- | --- | --- | --- |
| FCCn1c(-c2cncc(Cn3ccnc3)c2)nc2cc(F)c(Cl)cc21 [Compound 100, 6-Chloro-5-fluoro-1-(2-fluoroethyl)-2-[5-(imidazol-1-ylmethyl)pyridin-3-yl]benzimidazole] | 109 ± 15.8 nM | 6.9 ± 2.87 nM | 15.8 |
| FCCn1c(-c2cncc(Cn3ccnc3)c2)nc2cc(F)c(Br)cc21 [Compound 200, 6-Bromo-5-fluoro-1-(2-fluoroethyl)-2-[5-(imidazol-1-ylmethyl)pyridin-3-yl]benzimidazole] | 142 nM | 7.47 nM | 19.0 |
| COC(=O)c1cncn1Cc1cncc(-c2nc3cc(F)c(Br)cc3n2CCO)c1 [Compound 300, 2-{6-Bromo-5-fluoro-2-[5-(5-methylcarboxylateimidazol-1-ylmethyl)pyridin-3-yl]benzimidazol-1-yl}ethanol] | 19 nM | 10.6 nM | 1.79 |
| FCCn1c(-c2cncc(Cn3ccnc3)c2)nc2cc(F)c(I)cc21 [Compound 400, 5-Fluoro-1-(2-fluoroethyl)-2-[5-(imidazol-1-ylmethyl)pyridin-3-yl]-6-iodobenzimidazole] | 345 nM | 44.5 nM | 7.77 |
| FCCCn1c(-c2cncc(Cn3ccnc3)c2)nc2cc(F)c(Cl)cc21 [Compound 500, 6-Chloro-5-fluoro-1-(3-fluoropropyl)-2-[5-(imidazol-1-ylmethyl)pyridin-3-yl]benzimidazole] | 33.5 nM | 3.94 nM | 8.51 |
| Ic1ccc2nc(-c3cncc(Cn4ccnc4)c3)n(C3CC3)c2c1 [Compound 602, 1-Cyclopropyl-2-[3-(1H-imidazol-1-ylmethyl)pyridin-5-yl]-6-iodo-1H-benzimidazole] | 44.5 nM | 2.17 nM | 20.5 |
| Ic1ccc2nc(-c3cncc(Cn4ccnn4)c3)n(C3CC3)c2c1 [Compound 603, 1-Cyclopropyl-2-[3-(1H-1,2,3-triazol-1-ylmethyl)pyridin-5-yl]-6-iodo-1H-benzimidazole] | 296 nM | 18.1 nM | 16.4 |
| FCCn1c(-c2cncc(Cn3ccnc3)c2)nc2ccc(I)cc21 [Compound 604, 1-(2-Fluoroethyl)-2-[5-{(imidazol-1-yl)methyl}pyridin-3-yl]-6-iodobenzimidazole] | 54 nM | 4.54 nM | 11.9 |
| Fc1cc2nc(-c3cncc(Cn4ccnc4)c3)n(Cc3ccc(I)cc3)c2cc1Cl [Compound 605, 6-Chloro-5-fluoro-1-(4-iodobenzyl)-2-[5-(1H-imidazol-1-ylmethyl)-3-pyridinyl]-1H-benzimidazole] | 359 nM | 204 nM | 1.76 |
| CC(C)n1c(-c2cncc(Cn3ccnc3)c2)nc2ccc(I)cc21 [Compound 606, 2-[5-{(1H-imidazol-1-yl)methyl}pyridin-3-yl]-6-iodo-1-isopropyl-1H-benzo[d]imidazole] | 368 nM | 116 nM | 3.17 |
| Cn1c(-c2cncc(Cn3ccnc3)c2)nc2ccc(I)cc21 [Compound 607, 2-[5-{(1H-imidazol-1-yl)methyl}pyridin-3-yl]-6-iodo-1-methyl-1H-benzo[d]imidazole] | 7.07 nM | 0.93 nM | 7.62 |
| CCn1c(-c2cncc(Cn3ccnc3)c2)nc2ccc(I)cc21 [Compound 608, 2-[5-{(1H-imidazol-1-yl)methyl}pyridin-3-yl]-1-ethyl-6-iodo-1H-benzo[d]imidazole] | 52.2 nM | 6.58 nM | 7.93 |
| COc1cc(I)cc2c1nc(-c1cncc(Cn3ccnc3)c1)n2C1CC1 [Compound 609, 1-Cyclopropyl-2-[5-(imidazol-1-ylmethyl)pyridin-3-yl]-6-iodo-4-methoxybenzimidazole] | 15.5 nM | 1.49 nM | 10.4 |
| FCCn1c(-c2cncc(Cn3cncc3I)c2)nc2cc(F)c(Cl)cc21 [Compound 610, 6-Chloro-5-fluoro-1-(2-fluoroethyl)-2-{5-(5-iodo-1H-imidazol-1-ylmethyl)pyridin-3-yl}benzimidazole] | 91 nM | 9.81 nM | 9.27 |
| COC(=O)c1cncn1[C@H](C)c1ccc(I)cc1 [IMTO, (R)-4-iodometomidate, reference compound] | 0.22 nM and 0.25 nM | 0.21 nM and 0.24 nM | 1.01 and 1.03 |
| Methyl 1-[4-(1-cyclopropyl-6-iodo-1H-imidazobenzo-2-yl)-3-pyridinylmethyl)]-1H-imidazolecarboxylate [Compound 601] | 37.8 nM | 3.09 nM | 12.2 |
